Laboratory results published in ChEMBL document CHEMBL1201862, “PubChem BioAssay data set” (2004).
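Following 48 hours of exposure in 96-well plates, responses at five concentrations were used to interpolate endpoints linearly. GI50: concentration for 50% inhibition of growth.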 Calls of active or inactive are those of the source. Cut-off read from the data, not from the text of the source: active = GI50 up to about 1.1 µM and inactive = higher.

What was measured:
Experiment in all cases: NCI-60 cell line screen, 48 h
NCI-H522 = system: NCI-H522
COLO 205 = system: COLO 205
LOX IMVI = system: LOX IMVI
NCI-H23 = system: NCI-H23
MOLT-4 = system: MOLT-4
SW-620 = system: SW-620
ACHN = system: ACHN
OVCAR-8 = system: OVCAR-8
M14 = system: M14
T47D = system: T47D
OVCAR-4 = system: OVCAR-4
SK-MEL-2 = system: SK-MEL-2
RPMI-8226 = system: RPMI-8226
UACC-62 = system: UACC-62
UACC-257 = system: UACC-257
NCI/ADR-RES = system: NCI/ADR-RES
HL-60 = system: HL-60
BT-549 = system: BT-549
RXF 393 = system: RXF 393
HOP-92 = system: HOP-92

Measured: GI50

COc1cc2c(c(O)c1OC)C(=O)[C@@H]1CCC(=O)N1C2c1ccccc1 (stereo not given in full)
inactive: NCI-H522 28.5 µM | COLO 205 > 100 µM | LOX IMVI 97.1 µM | NCI-H23 > 100 µM | MOLT-4 36 µM | SW-620 > 100 µM | ACHN 85.7 µM | OVCAR-8 57.5 µM | M14 > 100 µM | T47D > 100 µM | OVCAR-4 > 100 µM | SK-MEL-2 > 100 µM | RPMI-8226 45.7 µM | UACC-62 44.5 µM | UACC-257 > 100 µM | NCI/ADR-RES > 100 µM | HL-60 45.5 µM | BT-549 > 100 µM

CN1CC[C@]2(c3cccc(O)c3)CC(=O)/C(=C/c3ccccc3)[C@@H]1C2.[O-][Cl+3]([O-])([O-])O
inactive: NCI-H522 2.74 µM | COLO 205 6.97 µM | LOX IMVI 1.94 µM | RXF 393 1.49 µM | NCI-H23 4.97 µM | MOLT-4 2.04 µM | SW-620 2.23 µM | ACHN 2.25 µM | OVCAR-8 3.03 µM | M14 2.73 µM | OVCAR-4 3.37 µM | SK-MEL-2 2.95 µM | RPMI-8226 1.86 µM | HOP-92 2.09 µM | UACC-257 3.24 µM | NCI/ADR-RES 2.98 µM | HL-60 1.8 µM | BT-549 2.44 µM

CCN1CC(C)Cn2c(=O)[nH]c3cc(Br)cc1c32 (stereo not given)
inactive: COLO 205 11 µM | LOX IMVI 21.4 µM | RXF 393 6.9 µM | NCI-H23 36.8 µM | MOLT-4 3.05 µM | SW-620 5.01 µM | ACHN 13.1 µM | OVCAR-8 23.7 µM | M14 34.1 µM | T47D 18.5 µM | OVCAR-4 12.1 µM | SK-MEL-2 23.9 µM | RPMI-8226 1.79 µM | UACC-62 6.97 µM | UACC-257 76 µM | NCI/ADR-RES 8.05 µM | HL-60 7.19 µM | BT-549 4.1 µM

O=S1(=O)c2ccccc2N2CCCc3cc(Cl)cc1c32
inactive: COLO 205 > 100 µM | LOX IMVI > 100 µM | RXF 393 25.2 µM | MOLT-4 > 100 µM | SW-620 > 100 µM | ACHN > 100 µM | OVCAR-8 > 100 µM | M14 > 100 µM | OVCAR-4 46.2 µM | SK-MEL-2 44.2 µM | UACC-62 60.1 µM | UACC-257 > 100 µM | NCI/ADR-RES > 100 µM | HL-60 > 100 µM | BT-549 > 100 µM

COc1ccc(Nc2nc3ccccc3nc2-c2cccs2)cc1OC
inactive: NCI-H522 > 10 µM | COLO 205 > 10 µM | LOX IMVI > 10 µM | RXF 393 > 10 µM | NCI-H23 > 10 µM | MOLT-4 > 10 µM | SW-620 > 10 µM | ACHN > 10 µM | OVCAR-8 > 10 µM | M14 > 10 µM | T47D > 10 µM | OVCAR-4 > 10 µM | SK-MEL-2 > 10 µM | RPMI-8226 > 10 µM | UACC-62 > 10 µM | HOP-92 > 10 µM | UACC-257 > 10 µM | NCI/ADR-RES > 10 µM | HL-60 > 10 µM

CCOC(=O)c1nnsc1NC(=O)Nc1ccc(Cl)cc1
inactive: NCI-H522 15.8 µM | COLO 205 67.3 µM | RXF 393 > 100 µM | NCI-H23 32.8 µM | MOLT-4 > 100 µM | SW-620 > 100 µM | ACHN > 100 µM | OVCAR-8 18.5 µM | M14 77.1 µM | T47D 34.3 µM | OVCAR-4 21.1 µM | SK-MEL-2 > 100 µM | RPMI-8226 44.5 µM | UACC-62 71 µM | UACC-257 > 100 µM | NCI/ADR-RES 25.1 µM | BT-549 > 100 µM

CCOC(=O)c1cc(-c2cc(OC)c(OC)c([N+](=O)[O-])c2)c([N+](=O)[O-])n1C
inactive: NCI-H522 4.13 µM | RXF 393 9.59 µM | NCI-H23 6.37 µM | MOLT-4 3.5 µM | ACHN 9.04 µM | OVCAR-8 > 10 µM | M14 8.57 µM | OVCAR-4 > 10 µM | SK-MEL-2 > 10 µM | UACC-62 3.53 µM | HOP-92 > 10 µM | UACC-257 3.02 µM | NCI/ADR-RES 3.94 µM | HL-60 3.37 µM | BT-549 > 10 µM

c1ccc(-n2nc3ccc4nonc4c3n2)cc1
inactive: COLO 205 > 100 µM | LOX IMVI > 100 µM | RXF 393 > 100 µM | NCI-H23 > 100 µM | MOLT-4 > 100 µM | SW-620 > 100 µM | ACHN > 100 µM | OVCAR-8 > 100 µM | M14 > 100 µM | T47D > 100 µM | OVCAR-4 > 100 µM | SK-MEL-2 > 100 µM | RPMI-8226 > 100 µM | UACC-62 > 100 µM | HOP-92 > 100 µM | UACC-257 > 100 µM | NCI/ADR-RES > 100 µM | HL-60 > 100 µM

CC(=O)NCc1nc(C#N)c(N)o1
inactive: NCI-H522 > 100 µM | COLO 205 > 100 µM | LOX IMVI > 100 µM | RXF 393 > 100 µM | NCI-H23 > 100 µM | MOLT-4 > 100 µM | SW-620 > 100 µM | ACHN > 100 µM | OVCAR-8 > 100 µM | M14 > 100 µM | T47D > 100 µM | OVCAR-4 > 100 µM | SK-MEL-2 > 100 µM | RPMI-8226 > 100 µM | UACC-62 > 100 µM | HOP-92 > 100 µM | UACC-257 > 100 µM | NCI/ADR-RES > 100 µM | HL-60 > 100 µM

CN1CCN(c2nc3ccccc3nc2C(=O)c2ccc(Cl)cc2)CC1
inactive: NCI-H522 38.1 µM | COLO 205 35.8 µM | LOX IMVI 40.6 µM | RXF 393 24.5 µM | NCI-H23 49.4 µM | MOLT-4 65 µM | SW-620 61 µM | ACHN > 100 µM | OVCAR-8 69 µM | M14 22.2 µM | T47D 45.6 µM | OVCAR-4 58.6 µM | SK-MEL-2 58.5 µM | RPMI-8226 22.2 µM | UACC-62 28.5 µM | HOP-92 26.5 µM | UACC-257 36.1 µM | NCI/ADR-RES 54.5 µM | HL-60 31 µM

CN1C(=O)C(O)CC1c1cccc(F)c1 (stereo not given)
inactive: NCI-H522 > 100 µM | COLO 205 > 100 µM | LOX IMVI > 100 µM | RXF 393 > 100 µM | NCI-H23 > 100 µM | MOLT-4 > 100 µM | SW-620 > 100 µM | ACHN > 100 µM | OVCAR-8 > 100 µM | M14 > 100 µM | OVCAR-4 > 100 µM | SK-MEL-2 > 100 µM | RPMI-8226 > 100 µM | UACC-62 > 100 µM | HOP-92 > 100 µM | UACC-257 > 100 µM | NCI/ADR-RES > 100 µM | HL-60 > 100 µM | BT-549 > 100 µM
